Data taken from the NIST ThermoML archive (doi:10.1021/je5008789).
± gives the expanded uncertainty stated by the source.

Conditions: Liquid; for mass density: Vibrating tube method; for viscosity: Vibrating wire viscometry

Question: For `CC(C)CCCC(C)CCCC(C)CCCCC(C)CCCC(C)CCCC(C)C` (stereo unspecified) [2,6,10,15,19,23-hexamethyltetracosane], which mass density (413.24 K, 140200 kPa) is on record?
Answer: 815.07 ± 2 kg/m3

Question: What about the viscosity (413.24 K, 140200 kPa) of the same molecule?
Answer: 7.831 ± 0.17 mPa·s

Question: And the mass density (413.25 K, 160570 kPa)?
Answer: 822.8 ± 2 kg/m3

Question: What about the viscosity (413.25 K, 160570 kPa) of the same molecule?
Answer: 9.322 ± 0.2 mPa·s

Question: What about the mass density (413.25 K, 181450 kPa) of the same molecule?
Answer: 829.85 ± 2.1 kg/m3

Question: What about the viscosity (413.25 K, 181450 kPa) of the same molecule?
Answer: 11.12 ± 0.23 mPa·s

Question: And the mass density (413.25 K, 202090 kPa)?
Answer: 836.75 ± 2.2 kg/m3

Question: What about the viscosity (413.25 K, 202090 kPa) of the same molecule?
Answer: 13.06 ± 0.27 mPa·s

Question: What about the mass density (433.18 K, 1120 kPa) of the same molecule?
Answer: 717.8 ± 1.5 kg/m3

Question: And the viscosity (433.18 K, 1120 kPa)?
Answer: 1.324 ± 0.029 mPa·s

Question: What about the mass density (433.19 K, 60430 kPa) of the same molecule?
Answer: 767.55 ± 1.7 kg/m3

Question: What about the viscosity (433.19 K, 60430 kPa) of the same molecule?
Answer: 2.785 ± 0.059 mPa·s

Question: And the mass density (433.19 K, 160660 kPa)?
Answer: 815.65 ± 2.1 kg/m3

Question: And the viscosity (433.19 K, 160660 kPa)?
Answer: 6.774 ± 0.14 mPa·s

Question: And the mass density (433.19 K, 180700 kPa)?
Answer: 823.09 ± 2.1 kg/m3

Question: And the viscosity (433.19 K, 180700 kPa)?
Answer: 7.891 ± 0.17 mPa·s

Question: What about the mass density (433.19 K, 200370 kPa) of the same molecule?
Answer: 830.05 ± 2.2 kg/m3

Question: And the viscosity (433.19 K, 200370 kPa)?
Answer: 9.057 ± 0.19 mPa·s

Question: What about the mass density (433.2 K, 80190 kPa) of the same molecule?
Answer: 779.13 ± 1.8 kg/m3

Question: And the viscosity (433.2 K, 80190 kPa)?
Answer: 3.392 ± 0.072 mPa·s

Question: And the mass density (433.21 K, 100280 kPa)?
Answer: 789.84 ± 1.9 kg/m3

Question: And the viscosity (433.21 K, 100280 kPa)?
Answer: 4.072 ± 0.086 mPa·s

Question: And the mass density (433.21 K, 120040 kPa)?
Answer: 798.72 ± 1.9 kg/m3

Question: What about the viscosity (433.21 K, 120040 kPa) of the same molecule?
Answer: 4.865 ± 0.1 mPa·s

Question: And the mass density (433.21 K, 140200 kPa)?
Answer: 807.55 ± 2 kg/m3

Question: What about the viscosity (433.21 K, 140200 kPa) of the same molecule?
Answer: 5.754 ± 0.12 mPa·s

Question: And the mass density (433.31 K, 600 kPa)?
Answer: 717.04 ± 1.4 kg/m3

Question: What about the viscosity (433.31 K, 600 kPa) of the same molecule?
Answer: 1.309 ± 0.028 mPa·s

Question: And the mass density (433.35 K, 20500 kPa)?
Answer: 737.74 ± 1.5 kg/m3

Question: And the viscosity (433.35 K, 20500 kPa)?
Answer: 1.749 ± 0.037 mPa·s

Question: What about the mass density (433.36 K, 680 kPa) of the same molecule?
Answer: 717.22 ± 1.4 kg/m3

Question: What about the viscosity (433.36 K, 680 kPa) of the same molecule?
Answer: 1.309 ± 0.028 mPa·s

Question: And the mass density (433.36 K, 40310 kPa)?
Answer: 753.83 ± 1.6 kg/m3

Question: What about the viscosity (433.36 K, 40310 kPa) of the same molecule?
Answer: 2.231 ± 0.047 mPa·s

Question: And the mass density (452.85 K, 201770 kPa)?
Answer: 823.37 ± 2.2 kg/m3

Question: What about the viscosity (452.85 K, 201770 kPa) of the same molecule?
Answer: 6.867 ± 0.14 mPa·s

Question: What about the mass density (452.95 K, 163170 kPa) of the same molecule?
Answer: 809.3 ± 2.1 kg/m3

Question: And the viscosity (452.95 K, 163170 kPa)?
Answer: 5.261 ± 0.11 mPa·s

Question: What about the mass density (452.95 K, 180270 kPa) of the same molecule?
Answer: 815.84 ± 2.1 kg/m3

Question: And the viscosity (452.95 K, 180270 kPa)?
Answer: 5.937 ± 0.12 mPa·s

Question: And the mass density (453.15 K, 1150 kPa)?
Answer: 704.74 ± 1.4 kg/m3

Question: What about the viscosity (453.15 K, 1150 kPa) of the same molecule?
Answer: 1.062 ± 0.023 mPa·s

Question: And the mass density (453.16 K, 20190 kPa)?
Answer: 726.4 ± 1.5 kg/m3

Question: And the viscosity (453.16 K, 20190 kPa)?
Answer: 1.405 ± 0.03 mPa·s

Question: And the mass density (453.17 K, 40450 kPa)?
Answer: 744.09 ± 1.6 kg/m3

Question: What about the viscosity (453.17 K, 40450 kPa) of the same molecule?
Answer: 1.796 ± 0.038 mPa·s

Question: What about the mass density (453.18 K, 60480 kPa) of the same molecule?
Answer: 758.43 ± 1.7 kg/m3

Question: What about the viscosity (453.18 K, 60480 kPa) of the same molecule?
Answer: 2.222 ± 0.047 mPa·s

Question: What about the mass density (453.18 K, 80140 kPa) of the same molecule?
Answer: 770.59 ± 1.8 kg/m3

Question: And the viscosity (453.18 K, 80140 kPa)?
Answer: 2.681 ± 0.057 mPa·s

Question: And the mass density (453.18 K, 100410 kPa)?
Answer: 781.58 ± 1.9 kg/m3

Question: And the viscosity (453.18 K, 100410 kPa)?
Answer: 3.214 ± 0.068 mPa·s

Question: What about the mass density (453.19 K, 160150 kPa) of the same molecule?
Answer: 808.49 ± 2.1 kg/m3

Question: And the viscosity (453.19 K, 160150 kPa)?
Answer: 5.142 ± 0.11 mPa·s

Question: And the mass density (453.2 K, 120790 kPa)?
Answer: 791.61 ± 1.9 kg/m3

Question: And the viscosity (453.2 K, 120790 kPa)?
Answer: 3.8 ± 0.08 mPa·s

Question: What about the mass density (453.2 K, 140400 kPa) of the same molecule?
Answer: 800.32 ± 2 kg/m3

Question: What about the viscosity (453.2 K, 140400 kPa) of the same molecule?
Answer: 4.438 ± 0.094 mPa·s

Question: What about the mass density (453.2 K, 180710 kPa) of the same molecule?
Answer: 816.55 ± 2.1 kg/m3

Question: What about the viscosity (453.2 K, 180710 kPa) of the same molecule?
Answer: 5.945 ± 0.12 mPa·s

Question: And the mass density (472.81 K, 1050 kPa)?
Answer: 691.59 ± 1.4 kg/m3

Question: And the viscosity (472.81 K, 1050 kPa)?
Answer: 0.867 ± 0.019 mPa·s

Question: And the mass density (473.03 K, 200210 kPa)?
Answer: 815.83 ± 2.2 kg/m3

Question: What about the viscosity (473.03 K, 200210 kPa) of the same molecule?
Answer: 5.348 ± 0.11 mPa·s

Question: And the mass density (473.04 K, 1050 kPa)?
Answer: 691.45 ± 1.4 kg/m3

Question: And the viscosity (473.04 K, 1050 kPa)?
Answer: 0.868 ± 0.019 mPa·s

Question: And the mass density (473.05 K, 150 kPa)?
Answer: 690.19 ± 1.4 kg/m3

Question: And the viscosity (473.05 K, 150 kPa)?
Answer: 0.853 ± 0.019 mPa·s

Question: And the mass density (473.05 K, 20040 kPa)?
Answer: 715.2 ± 1.5 kg/m3

Question: What about the viscosity (473.05 K, 20040 kPa) of the same molecule?
Answer: 1.151 ± 0.025 mPa·s

Question: What about the mass density (473.05 K, 39890 kPa) of the same molecule?
Answer: 733.71 ± 1.6 kg/m3

Question: And the viscosity (473.05 K, 39890 kPa)?
Answer: 1.465 ± 0.031 mPa·s

Question: And the mass density (473.05 K, 120200 kPa)?
Answer: 783.48 ± 1.9 kg/m3

Question: What about the viscosity (473.05 K, 120200 kPa) of the same molecule?
Answer: 3.031 ± 0.064 mPa·s

Question: And the mass density (473.05 K, 140440 kPa)?
Answer: 792.71 ± 2 kg/m3

Question: And the viscosity (473.05 K, 140440 kPa)?
Answer: 3.531 ± 0.075 mPa·s

Question: And the mass density (473.05 K, 160340 kPa)?
Answer: 801 ± 2.1 kg/m3

Question: What about the viscosity (473.05 K, 160340 kPa) of the same molecule?
Answer: 4.073 ± 0.086 mPa·s

Question: And the mass density (473.05 K, 180470 kPa)?
Answer: 808.83 ± 2.2 kg/m3

Question: And the viscosity (473.05 K, 180470 kPa)?
Answer: 4.671 ± 0.098 mPa·s

Question: And the mass density (473.06 K, 60230 kPa)?
Answer: 749.17 ± 1.7 kg/m3

Question: And the viscosity (473.06 K, 60230 kPa)?
Answer: 1.81 ± 0.039 mPa·s

Question: What about the mass density (473.06 K, 79910 kPa) of the same molecule?
Answer: 761.86 ± 1.8 kg/m3

Question: And the viscosity (473.06 K, 79910 kPa)?
Answer: 2.175 ± 0.046 mPa·s

Question: And the mass density (473.07 K, 100370 kPa)?
Answer: 773.42 ± 1.9 kg/m3

Question: What about the viscosity (473.07 K, 100370 kPa) of the same molecule?
Answer: 2.59 ± 0.055 mPa·s
